Results reported in patent US20250353863A1, “TRICYCLIC SPIROLACTAM COMPOUNDS WITH ANTIMYCOBACTERIAL ACTIVITY” (priority 2022, published 2025).
In brackets after ≈: the same amount, converted by molar mass. Like-named read-outs stand apart in the source and are kept apart here.

System: Mtb H37Rv-WT
Experiment: MIC by resazurin microtiter assay (REMA) against Mtb
Assay type: cell-based
Details: Mycobacterium tuberculosis, 144 h, read-out: MIC (μM) H37Rv-WT

SMILES | MIC (REMA, 37° C., 6 days) [µM] | MIC [µM]
CC(C)[C@H]1CO[C@]23CCN(C(=O)OCCc4ccc(C(F)(F)F)cc4)C[C@H]2CCC(=O)N13 | 1 to 10 (≈ 0.454 to 4.54 µg/mL) | 
CC(C)[C@H]1CO[C@]23CCN(C(=O)OCCCc4ccc(C(F)(F)F)cc4)C[C@H]2CCC(=O)N13 | 1 to 10 (≈ 0.469 to 4.69 µg/mL) | 
CC(C)[C@H]1CO[C@]23CCN(Cc4ccc(C(F)(F)F)cc4)C[C@H]2C[C@@H](C)C(=O)N13 | < 1 | 
CC(C)[C@H]1CO[C@]23CCN(S(=O)(=O)CCCc4ccc(C(F)(F)F)cc4)C[C@H]2CCC(=O)N13 | < 1 | 
CC(C)[C@H]1CO[C@]23CCN(Cc4cc5ccccc5n4C)C[C@H]2CCC(=O)N13 | < 1 | 
CC(C)[C@H]1CO[C@]23CCN(Cc4ccc(OC(F)(F)F)cc4)C[C@H]2CCC(=O)N13 | < 1 | 
CC(C)[C@H]1CO[C@]23CCN(S(=O)(=O)Cc4ccc(C(F)(F)F)cc4)C[C@H]2CCC(=O)N13 | < 1 | 
C=C[C@H]1CO[C@]23CCN(Cc4ccc(C(F)(F)F)cc4)C[C@H]2CCC(=O)N13 | > 10 | 
CC(C)[C@H]1CO[C@]23CC[C@@H](N(Cc4ccc(C(F)(F)F)cc4)Cc4ccc(C(F)(F)F)cc4)C[C@H]2CCC(=O)N13 | < 1 | 
CC(C)[C@H]1CO[C@]23CC[C@H](NCc4ccc(C(F)(F)F)cc4)C[C@H]2CCC(=O)N13 | < 1 | 
CC(C)[C@H]1CO[C@]23CC[C@H](N(Cc4ccc(C(F)(F)F)cc4)Cc4ccc(C(F)(F)F)cc4)C[C@H]2CCC(=O)N13 | < 1 | 
CC(C)[C@H]1CCO[C@]23CCN(Cc4ccc(C(F)(F)F)cc4)C[C@H]2CCC(=O)N13 | 1 to 10 (≈ 0.41 to 4.1 µg/mL) | 
CC(C)[C@H]1CO[C@]23CCN(Cc4ccc(C(F)(F)F)cc4)C[C@H]2C[C@H](C)C(=O)N13 (single isomer, unassigned) | 1 to 10 (≈ 0.41 to 4.1 µg/mL) | 
CC(C)[C@H]1CO[C@]23CCN(Cc4ccccc4)C[C@H]2CC(=O)N13 [(1R,4S,8R)-10-benzyl-4-isopropyl-2-oxa-5,10-diazatricyclo[6.4.0.01,5]dodecan-6-one] | 1 to 10 (≈ 0.314 to 3.14 µg/mL) | 
CC(C)[C@H]1CO[C@]23CCN(Cc4ccc(C(F)(F)F)cc4)C[C@H]2OCC(=O)N13 [(1R,4S,9R)-4-isopropyl-11-[[4-(trifluoromethyl)phenyl]methyl]-2,8-dioxa-5,11-diazatricyclo[7.4.0.01,5]tridecan-6-one] | 1 to 10 (≈ 0.398 to 3.98 µg/mL) | 
CC(C)[C@H]1CO[C@]23CCN(Cc4ccc(C(F)(F)F)cc4)[C@H]2CCC(=O)N13 [(1R,4S,9S)-4-isopropyl-10-[[4-(trifluoromethyl)phenyl]methyl]-2-oxa-5,10-diazatricyclo[7.3.0.01,5]dodecan-6-one] | < 1 | 
O=C1CC[C@@H]2CN(Cc3ccccc3)CC[C@@]23N[C@H]2CCCC[C@@H]2N13 [(1S,6R,11S,16S)-4-benzyl-4,10,17-triazatetracyclo[8.7.0.01,6.011,16] heptadecan-9-one] | > 10 | 
O=C1CC[C@@H]2CN(Cc3ccc(C(F)(F)F)cc3)CC[C@@]23OC[C@H](C(F)(F)F)N13 [(3R,7aR,11aR)-3-(trifluoromethyl)-9-[[4-(trifluoromethyl)phenyl]methyl]-2,3,6,7,7a,8,10,11-octahydrooxazolo[2,3-j][1,6]naphthyridin-5-one] | > 10 | 
C=CC[C@@H]1C[C@@H]2CN(Cc3ccc(C(F)(F)F)cc3)CC[C@@]23OC[C@H](C(C)C)N3C1=O [(3S,6R,7aR,11aR)-6-allyl-3-isopropyl-9-[[4-(trifluoromethyl)phenyl]methyl]-2,3,6,7,7a,8,10,11-octahydrooxazolo[2,3-j][1,6]naphthyridin-5-one] | 1 to 10 (≈ 0.437 to 4.37 µg/mL) | 
CC[C@@H]1C[C@@H]2CN(Cc3ccc(C(F)(F)F)cc3)CC[C@@]23OC[C@H](C(C)C)N3C1=O [(3S,6R,7aR,11aR)-6-ethyl-3-isopropyl-9-[[4-(trifluoromethyl)phenyl]methyl]-2,3,6,7,7a,8,10,11-octahydrooxazolo[2,3-j][1,6]naphthyridin-5-one] | < 1 | 

SMILES | MIC (REMA, 37° C., 6 days) [µM] | MIC [µM]
CC(C)C[C@@H]1C[C@@H]2CN(Cc3ccc(C(F)(F)F)cc3)CC[C@@]23OC[C@H](C(C)C)N3C1=O [(3S,6R,7aR,11aR)-6-isobutyl-3-isopropyl-9-[[4-(trifluoromethyl)phenyl]methyl]-2,3,6,7,7a,8,10,11-octahydrooxazolo[2,3-j][1,6]naphthyridin-5-one] | > 10 | 
C=CC[C@H]1C[C@@H]2CN(Cc3ccc(C(F)(F)F)cc3)CC[C@@]23OC[C@H](C(C)C)N3C1=O [(3S,6S,7aR,11aR)-6-allyl-3-isopropyl-9-[[4-(trifluoromethyl)phenyl]methyl]-2,3,6,7,7a,8,10,11-octahydrooxazolo[2,3-j][1,6]naphthyridin-5-one] | > 10 | 
CC[C@H]1C[C@@H]2CN(Cc3ccc(C(F)(F)F)cc3)CC[C@@]23OC[C@H](C(C)C)N3C1=O [(3S,6S,7aR,11aR)-6-ethyl-3-isopropyl-9-[[4-(trifluoromethyl)phenyl]methyl]-2,3,6,7,7a,8,10,11-octahydrooxazolo[2,3-j][1,6]naphthyridin-5-one] | > 10 | 
CC(C)[C@H]1CO[C@]23CCN(Cc4ccncc4)C[C@H]2CCC(=O)N13 [(3S,7aR,11aR)-3-isopropyl-9-(4-pyridylmethyl)-2,3,6,7,7a,8,10,11-octahydrooxazolo[2,3-j][1,6]naphthyridin-5-one] |  | > 10
CC(C)[C@H]1CO[C@]23CCN(Cc4ccc5ncccc5c4)C[C@H]2CCC(=O)N13 [(3S,7aR,11aR)-3-isopropyl-9-(6-quinolylmethyl)-2,3,6,7,7a,8,10,11-octahydrooxazolo[2,3-j][1,6]naphthyridin-5-one] | 1 to 10 (≈ 0.38 to 3.8 µg/mL) | 
Cc1ccc(CN2CC[C@]34OC[C@H](C(C)C)N3C(=O)CC[C@@H]4C2)cc1 [(3S,7aR,11aR)-3-isopropyl-9-(p-tolylmethyl)-2,3,6,7,7a,8,10,11-octahydrooxazolo[2,3-j][1,6]naphthyridin-5-one] | 1 to 10 (≈ 0.342 to 3.42 µg/mL) | 
CC(C)[C@H]1CO[C@]23CCN(CC4CCCO4)C[C@H]2CCC(=O)N13 (stereo partly drawn) [(3S,7aR,11aR)-3-isopropyl-9-(tetrahydrofuran-2-ylmethyl)-2,3,6,7,7a,8,10,11-octahydrooxazolo[2,3-j][1,6]naphthyridin-5-one] | > 10 | 
CC(C)[C@H]1CO[C@]23CCN(CC4CCCCO4)C[C@H]2CCC(=O)N13 (stereo partly drawn) [(3S,7aR,11aR)-3-isopropyl-9-(tetrahydropyran-2-ylmethyl)-2,3,6,7,7a,8,10,11-octahydrooxazolo[2,3-j][1,6]naphthyridin-5-one] | 1 to 10 (≈ 0.336 to 3.36 µg/mL) | 
CC(C)[C@H]1CO[C@]23CCN(CC4CCOCC4)C[C@H]2CCC(=O)N13 [(3S,7aR,11aR)-3-isopropyl-9-(tetrahydropyran-4-ylmethyl)-2,3,6,7,7a,8,10,11-octahydrooxazolo[2,3-j][1,6]naphthyridin-5-one] | > 10 | 
CC(C)[C@H]1CO[C@]23CCN(C(=O)Cc4ccc(C(F)(F)F)cc4)C[C@H]2CCC(=O)N13 [(3S,7aR,11aR)-3-isopropyl-9-[2-[4-(trifluoromethyl)phenyl]acetyl]-2,3,6,7,7a,8,10,11-octahydrooxazolo[2,3-j][1,6]naphthyridin-5-one] | > 10 | 
CC(C)[C@H]1CO[C@]23CCN(S(=O)(=O)CCc4ccc(C(F)(F)F)cc4)C[C@H]2CCC(=O)N13 [(3S,7aR,11aR)-3-isopropyl-9-[2-[4-(trifluoromethyl)phenyl]ethylsulfonyl]-2,3,6,7,7a,8,10,11-octahydrooxazolo[2,3-j][1,6]naphthyridin-5-one] | < 1 | 
CC(C)[C@H]1CO[C@]23CCN(CCCc4ccc(C(F)(F)F)cc4)C[C@H]2CCC(=O)N13 [(3S,7aR,11aR)-3-isopropyl-9-[3-[4-(trifluoromethyl)phenyl]propyl]-2,3,6,7,7a,8,10,11-octahydrooxazolo[2,3-j][1,6]naphthyridin-5-one] | < 1 | 
CC(C)[C@H]1CO[C@]23CCN(c4ccc(C(F)(F)F)cc4)C[C@H]2CCC(=O)N13 [(3S,7aR,11aR)-3-isopropyl-9-[4-(trifluoromethyl)phenyl]-2,3,6,7,7a,8,10,11-octahydrooxazolo[2,3-j][1,6]naphthyridin-5-one] | 1 to 10 (≈ 0.382 to 3.82 µg/mL) | 
CC(C)[C@H]1CO[C@]23CCN(Cc4nccn4C)C[C@H]2CCC(=O)N13 [(3S,7aR,11aR)-3-isopropyl-9-[(1-methylimidazol-2-yl)methyl]-2,3,6,7,7a,8,10,11-octahydrooxazolo[2,3-j][1,6]naphthyridin-5-one] | 1 to 10 (≈ 0.332 to 3.32 µg/mL) | 
Cc1c(CN2CC[C@]34OC[C@H](C(C)C)N3C(=O)CC[C@@H]4C2)[nH]c2ccccc12 [(3S,7aR,11aR)-3-isopropyl-9-[(3-methyl-1H-indol-2-yl)methyl]-2,3,6,7,7a,8,10,11-octahydrooxazolo[2,3-j][1,6]naphthyridin-5-one] | < 1 | 
CC(C)[C@H]1CO[C@]23CCN(Cc4cccc(Oc5ccccc5)c4)C[C@H]2CCC(=O)N13 [(3S,7aR,11aR)-3-isopropyl-9-[(3-phenoxyphenyl)methyl]-2,3,6,7,7a,8,10,11-octahydrooxazolo[2,3-j][1,6]naphthyridin-5-one] | < 1 | 
CC(C)[C@H]1CO[C@]23CCN(Cc4ccc(-c5ccccc5)cc4)C[C@H]2CCC(=O)N13 [(3S,7aR,11aR)-3-isopropyl-9-[(4-phenylphenyl)methyl]-2,3,6,7,7a,8,10,11-octahydrooxazolo[2,3-j][1,6]naphthyridin-5-one] | < 1 | 
CC(C)[C@H]1CO[C@]23CCN(Cc4cc(C(F)(F)F)nc5ccccc45)C[C@H]2CCC(=O)N13 [(3S,7aR,11aR)-3-isopropyl-9-[[2-(trifluoromethyl)-4-quinolyl]methyl]-2,3,6,7,7a,8,10,11-octahydrooxazolo[2,3-j][1,6]naphthyridin-5-one] | < 1 | 
CC(C)[C@H]1CO[C@]23CCN(Cc4ccc(N5CCCCC5)cc4)C[C@H]2CCC(=O)N13 [(3S,7aR,11aR)-3-isopropyl-9-[[4-(1-piperidyl)phenyl]methyl]-2,3,6,7,7a,8,10,11-octahydrooxazolo[2,3-j][1,6]naphthyridin-5-one] | 1 to 10 (≈ 0.412 to 4.12 µg/mL) | 
CC(C)[C@H]1CO[C@]23CCN(Cc4ccc(C(F)(F)F)cc4)C[C@H]2CCC(=O)N13 [(3S,7aR,11aR)-3-isopropyl-9-[[4-(trifluoromethyl)phenyl]methyl]-2,3,6,7,7a,8,10,11-octahydrooxazolo[2,3-j][1,6]naphthyridin-5-one] | < 1 | 
